The target in the assay is T1, HIV-integrase (recombinant integrase) (Human immunodeficiency virus type 1 group M subtype B, UniProt P12497).
T1 construct: Recombinant integrase (0.26 ng) was incubated with the beads
In words: HIV-Integrase Inhibition Activity (SPA bead strand-transfer assay). Conditions: biotin labeled substrate DNA on SPA beads, P33 labeled target DNA, read-out: Activity (IC50 against HIV-integrase). It counts as biochemical. The method, then:
HIV-Integrase Inhibition Activity. To evaluate in-vitro activity against HIV-integrase, 5 pmole of biotin labeled substrate DNA was bound to 100 μg of Streptavidin coated PVT SPA beads (Amersham Pharmacia Biotech). Recombinant integrase (0.26 ng) was incubated with the beads for 90 min at 37° C. Unbound enzyme was removed by washing the complex followed by addition of inhibitors and 0.1 fmol of P33 labeled target DNA. The reaction was stopped by adding EDTA to a final concentration of 10 mM. Samples were counted in TopCountNXT (Packard) and the CPM was used as a measure of integration. The reaction condition was as described in A. Engelman and R. Craigie, J. Virol. 69, 5908-5911 (1995). The sequences of substrate and target DNA were described in Nucleic Acid Research 22, 1121-1122 (1994). Activity equal to A refers to a compound having IC50=0.002 to 0.10 μM while B and C denote compounds having IC50=0.1 to 1.0 μM and IC50≧1.0 μM respectively.

`Cc1ncnn1-c1cc(F)ccc1CNC(=O)c1nc2n(c(=O)c1O)CCS(=O)(=O)C2(C)C` [Example 7, Pyrimido[2,1-c][1,4]thiazine-2-carboxamide, N-[[4-fluoro-2-(5-methyl-1H-1,2,4-triazol-1-yl)phenyl]methyl]-4,6,7,9-tetrahydro-3-hydroxy-9,9-dimethyl-4-oxo-8,8-dioxide]: the IC50 was in the range of 2 to 100 nM.
Next, `Cc1cc(CNC(=O)c2nc3n(c(=O)c2O)CCCS(=O)(=O)C32CCOCC2)ccc1F` [Example 27, Spiro[4H-pyran-4,10′(4′H)-[6H]pyrimido[2,1-c][1,4]thiazepine]-2′-carboxamide, N-[(4-fluoro-3-methylphenyl)methyl]-2,3,5,6,7′,8′-hexahydro-3′-hydroxy-4′-oxo-, 9′,9′-dioxide]: 2 to 100 nM; `O=C(NCc1ccc(F)cc1)c1nc2n(c(=O)c1O)CCCS(=O)(=O)C21CC1` [Example 24, Spiro[cyclopropane-1,10′(4′H)-[6H]pyrimido[2,1-c][1,4]thiazepine]-2′-carboxamide, N-[(4-fluorophenyl)methyl]-7′,8′-dihydro-3′-hydroxy-4′-oxo-, 9′,9′-dioxide]: 2 to 100 nM; `O=C(NCc1ccc(F)cc1)c1nc2n(c(=O)c1O)CCCS(=O)(=O)C21CCCC1` [Example 25, Spiro[cyclopentane-1,10′(4′H)-[6H]pyrimido[2,1-c][1,4]thiazepine]-2′-carboxamide, N-[(4-fluorophenyl)methyl]-7′,8′-dihydro-3′-hydroxy-4′-oxo-, 9′,9′-dioxide]: 2 to 100 nM.
Next, `O=C(NCc1ccc(F)cc1)c1nc2n(c(=O)c1O)CCS(=O)(=O)C21CCCC1` [Example 12, Spiro[cyclopentane-1,9′(4′H)-pyrimido[2,1-c][1,4]thiazine]-2′-carboxamide, N-[(4-fluorophenyl)methyl]-6′,7′-dihydro-3′-hydroxy-4′-oxo-, 8′,8′-dioxide]: 2 to 100 nM.
`Cc1ncn(-c2cc(F)ccc2CNC(=O)c2nc3n(c(=O)c2O)CCS(=O)(=O)C3(C)C)n1` [Example 6, Pyrimido[2,1-c][1,4]thiazine-2-carboxamide, N-[[4-fluoro-2-(3-methyl-1H-1,2,4-triazol-1-yl)phenyl]methyl]-4,6,7,9-tetrahydro-3-hydroxy-9,9-dimethyl-4-oxo-, 8,8-dioxide]: the IC50 was in the range of 2 to 100 nM.
Next, `O=C(NCc1ccc(F)cc1-n1cncn1)c1nc2n(c(=O)c1O)CCS(=O)(=O)C21CCOCC1` [Example 17, Spiro[4H-pyran-4,9′(4′H)-pyrimido[2,1-c][1,4]thiazine]-2′-carboxamide, N-[[4-fluoro-2-(1H-1,2,4-triazol-1-yl)phenyl]methyl]-2,3,5,6,6′,7′-hexahydro-3′-hydroxy-4′-oxo-, 8′,8′-dioxide]: 2 to 100 nM; `CC1(C)c2nc(C(=O)NCc3ccc(F)cc3)c(O)c(=O)n2CCS1(=O)=O` [Example 4, Pyrimido[2,1-c][1,4]thiazine-2-carboxamide, N-[(4-fluorophenyl)methyl]-4,6,7,9-tetrahydro-3-hydroxy-9,9-dimethyl-4-oxo-, 8,8-dioxide]: 2 to 100 nM.
Then `O=C(NCc1ccc(F)cc1)c1nc2n(c(=O)c1O)CCCS(=O)(=O)C2` [Example 21, 6H-Pyrimido[2,1-c][1,4]thiazepine-2-carboxamide, N-[(4-fluorophenyl)methyl]-4,7,8,10-tetrahydro-3-hydroxy-4-oxo-, 9,9-dioxide], with 2 to 100 nM; and `O=C(NCc1ccc(F)cc1)c1nc2n(c(=O)c1O)CCS(=O)(=O)C21CCOCC1` [Example 16, Spiro[4H-pyran-4,9′(4′H)-pyrimido[2,1-c][1,4]thiazine]-2′-carboxamide, N-[(4-fluorophenyl)methyl]-2,3,5,6,6′,7′-hexahydro-3′-hydroxy-4′-oxo-, 8′,8′-dioxide], with 2 to 100 nM; and `Cc1ncn(-c2cc(F)ccc2CNC(=O)c2nc3n(c(=O)c2O)CCS(=O)(=O)C32CC2)n1` [Example 10, Spiro[cyclopropane-1,9′(4′H)-pyrimido[2,1-c][1,4]thiazine]-2′-carboxamide, N-[[4-fluoro-2-(3-methyl-1H-1,2,4-triazol-1-yl)phenyl]methyl]-6′,7′-dihydro-3′-hydroxy-4′-oxo-, 8′,8′-dioxide], with 2 to 100 nM.
With `CC1c2nc(C(=O)NCc3ccc(F)cc3)c(O)c(=O)n2CCS1(=O)=O` (stereo not drawn) [Example 3, Pyrimido[2,1-c][1,4]thiazine-2-carboxamide, N-[(4-fluorophenyl)methyl]-4,6,7,9-tetrahydro-3-hydroxy-9-methyl-4-oxo-, 8,8-dioxide], the IC50 was 2 to 100 nM.
Then `Cc1ncnn1-c1cc(F)ccc1CNC(=O)c1nc2n(c(=O)c1O)CCS(=O)(=O)C21CC1` [Example 11, Spiro[cyclopropane-1,9′(4′H)-pyrimido[2,1-c][1,4]thiazine]-2′-carboxamide, N-[[4-fluoro-2-(5-methyl-1H-1,2,4-triazol-1-yl)phenyl]methyl]-6′,7′-dihydro-3′-hydroxy-4′-oxo-, 8′,8′-dioxide], with 2 to 100 nM.
Next, `CC1(C)c2nc(C(=O)NCc3ccc(F)cc3)c(O)c(=O)n2CCCS1(=O)=O` [Example 23, 6H-Pyrimido[2,1-c][1,4]thiazepine-2-carboxamide, N-[(4-fluorophenyl)methyl]-4,7,8,10-tetrahydro-3-hydroxy-10,10-dimethyl-4-oxo-, 9,9-dioxide]: 2 to 100 nM; `CC1c2nc(C(=O)NCc3ccc(F)cc3)c(O)c(=O)n2CCCS1(=O)=O` (stereo not drawn) [Example 22, 6H-Pyrimido[2,1-c][1,4]thiazepine-2-carboxamide, N-[(4-fluorophenyl)methyl]-4,7,8,10-tetrahydro-3-hydroxy-10-methyl-4-oxo-, 9,9-dioxide]: 2 to 100 nM; `O=C(NCc1ccc(F)cc1-n1cncn1)c1nc2n(c(=O)c1O)CCS(=O)(=O)C21CC1` [Example 9, Spiro[cyclopropane-1,9′(4′H)-pyrimido[2,1-c][1,4]thiazine]-2′-carboxamide, N-[[4-fluoro-2-(1H-1,2,4-triazol-1-yl)phenyl]methyl]-6′,7′-dihydro-3′-hydroxy-4′-oxo-, 8′,8′-dioxide]: 2 to 100 nM.
Next, `CC1(C)c2nc(C(=O)NCc3ccc(F)cc3-n3cncn3)c(O)c(=O)n2CCS1(=O)=O` [Example 5, Pyrimido[2,1-c][1,4]thiazine-2-carboxamide, N-[[4-fluoro-2-(1H-1,2,4-triazol-1-yl)phenyl]methyl]-4,6,7,9-tetrahydro-3-hydroxy-9,9-dimethyl-4-oxo-, 8,8-dioxide]: 2 to 100 nM; `Cc1ncn(-c2cc(F)ccc2CNC(=O)c2nc3n(c(=O)c2O)CCS(=O)(=O)C32CCCC2)n1` [Example 14, Spiro[cyclopentane-1,9′(4′H)-pyrimido[2,1-c][1,4]thiazine]-2′-carboxamide, N-[[4-fluoro-2-(3-methyl-1H-1,2,4-triazol-1-yl)phenyl]methyl]-6′,7′-dihydro-3′-hydroxy-4′-oxo-, 8′,8′-dioxide]: 2 to 100 nM.
Turning to `Cc1ncnn1-c1cc(F)ccc1CNC(=O)c1nc2n(c(=O)c1O)CCS(=O)(=O)C21CCCC1` [Example 15, Spiro[cyclopentane-1,9′(4′H)-pyrimido[2,1-c][1,4]thiazine]-2′-carboxamide, N-[[4-fluoro-2-(5-methyl-1H-1,2,4-triazol-1-yl)phenyl]methyl]-6′,7′-dihydro-3′-hydroxy-4′-oxo-, 8′,8′-dioxide], the IC50 was in the range of 2 to 100 nM.
On to `Cc1ncnn1-c1cc(F)ccc1CNC(=O)c1nc2n(c(=O)c1O)CCS(=O)(=O)C21CCOCC1` [Example 18, Spiro[4H-pyran-4,9′(4′H)-pyrimido[2,1-c][1,4]thiazine]-2′-carboxamide, N-[[4-fluoro-2-(5-methyl-1H-1,2,4-triazol-1-yl)phenyl]methyl]-2,3,5,6,6′,7′-hexahydro-3′-hydroxy-4′-oxo-, 8′,8′-dioxide], for which the IC50 was 2 to 100 nM.
Next, `Cc1ncnn1-c1cc(F)ccc1CNC(=O)c1nc2n(c(=O)c1O)CCCS(=O)(=O)C21CCOCC1` [Example 29, Spiro[4H-pyran-4,10′(4′H)-[6H]pyrimido[2,1-c][1,4]thiazepine]-2′-carboxamide, N-[[4-fluoro-2-(5-methyl-1H-1,2,4-triazol-1-yl)phenyl]methyl]-2,3,5,6,7′,8′-hexahydro-3′-hydroxy-4′-oxo-, 9′,9′-dioxide]: 2 to 100 nM; `O=C(NCc1ccc(F)cc1)c1nc2n(c(=O)c1O)CCSC2` [Example 1, N-(4-fluorobenzyl)-3-hydroxy-4-oxo-4,6,7,9-tetrahydropyrimido[2,1-c][1,4]thiazine-2-carboxamide]: 2 to 100 nM.
Then `O=C(NCc1ccc(F)cc1-n1cncn1)c1nc2n(c(=O)c1O)CCS(=O)(=O)C21CCCC1` [Example 13, Spiro[cyclopentane-1,9′(4′H)-pyrimido[2,1-c][1,4]thiazine]-2′-carboxamide, N-[[4-fluoro-2-(1H-1,2,4-triazol-1-yl)phenyl]methyl]-6′,7′-dihydro-3′-hydroxy-4′-oxo-, 8′,8′-dioxide], with 2 to 100 nM; and `O=C(NCc1ccc(F)cc1)c1nc2n(c(=O)c1O)CCCSC2` [Example 19, N-(4-Fluorobenzyl)-3-hydroxy-4-oxo-6,7,8,10-tetrahydro-4H-pyrimido[2,1-c][1,4]thiazepine-2-carboxamide], with 2 to 100 nM.

The values are drawn from patent publication US7897592B2, “HIV integrase inhibitors” (priority 2005, dated 2011).
